In one series the target is SDF-1 (Homo sapiens, UniProt P48061). In words: Inhibition of SDF-1-induced chemotaxis, BV-173 cells. The class given is cell-based. Conditions: 3 nM human SDF-1. The protocol: The human T cell leukemia cell line Jurkat, the human leukemic monocyte lymphoma cell line U937, the human pre-B cell leukemia cell line BV-173 and human pre-B ALL cell line Nalm-6 express CXCR4. […] All cells used were obtained from the DSMZ (Braunschweig). All cell lines were cultivated at 37° C. and 5% CO2 in RPMI 1640 medium with Glutamax (Invitrogen, Karlsruhe, Germany) which contains 10% fetal bovine serum, 100 units/ml penicillin and 100 μg/ml streptomycin (Invitrogen, Karlsruhe, Germany). One day before the experiment, cells were seeded in a new T175 flask with a density of 0.3×10^6/ml (Jurkat, U937, BV-173) or 0.75×10^6/ml (Nalm-6), respectively.
Chain of SDF-1 (P48061 22-89): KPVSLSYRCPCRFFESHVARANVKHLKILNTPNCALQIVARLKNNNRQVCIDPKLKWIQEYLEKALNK
For the experiment, cells were centrifuged (5 min at 300 g), resuspended, counted and washed once with 15 ml HBH (Hanks balanced salt solution containing 1 mg/ml bovine serum albumin and 20 mM HEPES; Invitrogen, Karlsruhe, Germany). Then the cells were resuspended at 1.33×10^6/ml (Jurkat, U937, BV-173) or 2.67×10^6/ml (Nalm-6), respectively. […]
For evaluation, fluorescence values were corrected for background fluorescence (no cells in well). Then the difference between experimental conditions with and without SDF-1 was calculated. The value for the sample without Spiegelmer (SDF-1 only) was set 100% and the values for the samples with Spiegelmer were calculated as percent of this. […]

Series [1] has as its system SDF-1 induced sprouting, rings from rat aorta. As to the kind of experiment: Aortic ring sprouting assay. In kind it is cell-based. Conditions: 10 nM SDF-1 + 1 μM Spiegelmer, 6 days; listed as 193-G2-012-5′-PEG. The protocol: After 6 to 7 days, sprouting (i.e. outgrowth of endothelial cells) was analysed by taking pictures and determining a sprouting index.
Aortae from male rats were obtained from Bagheri Life sciences (Berlin, Germany). The aortae were prepared freshly and transported on ice in MCDB 131-Medium (Invitrogen, Karlsruhe, Germany) containing 50 units/ml penicillin, 50 μg/ml streptomycin (both Invitrogen, Karlsruhe, Germany) and 2.5 μg/ml fungizone (Cambrex, USA).
For an experiment a single aorta was transferred to a cell culture dish together with the medium and residual connective tissue was removed. Then the aorta was cut with a scalpel into rings of about 1 to 2 mm length. The rings were washed intensively (at least five times) in Medium199 (Invitrogen, Karlsruhe, Germany) and then placed in wells of a 24 well plate, containing 450 μl of collagen solution per well. […]
Sprouting was documented by taking pictures with a digital camera. […] Pictures were analysed with the Scion Image image processing software. […] A plot histogram along this line was generated by the software, histograms were printed and peaks (representing sprouts crossing the line) were counted. […] 4 to 5 rings per condition were evaluated. […]

The next series concerns Luc+/GFP+ MM.1S cells. As to the kind of experiment: Multiple myeloma animal model in SCID mice. The class given is in vivo. An excerpt:
The SDF-1/CXCR4 axis plays a major role in homing and trafficking of multiple myeloma (abbr. MM) cells to the bone marrow (abbr. BM). Therefore, de-adhesion of MM cells from the surrounding BM milieu through SDF-1 inhibition enhances MM sensitivity to therapeutic agents. Azab et al. published a protocol to test the CXCR4 inhibitor AMD3100 potency to disrupt the interaction of MM cells with the BM environment in vivo that affects localization MM cells [, which in turn enhances the sensitivity of MM cells to chemotherapy. […] Based on this protocol (Azab et al. 2009) the SDF-1 binding Spiegelmer NOX-A12 is tested for its potency to disupt the interaction of MM cells with the BM environment in vivo thereby enhancing the sensitivity of the MM cells to therapy.
For the MM animal model severe combined immunodeficient (SCID) mice are used whereby Luc+/GFP+ MM.1S cells (2×10^6/mouse) are injected into the tail vein of SCID mice. After 3 to 4 weeks, sufficient tumor progression is detected by bioluminescence imaging (for protocol see Azab et al. 2009). […]

Entries after “also recorded” stand apart in the source; their conditions may differ. {PEG40k} = 40 kDa polyethylene glycol

Consider one substance from patent publication US9387221B2, “SDF-1 binding nucleic acids and the use thereof in cancer treatment” (NOXXON Pharma AG, priority 2010, dated 2016).

Regarding “5′-40 kDa-PEG-GCGUGGUGUGAUCUAGAUGUAUUGGCUGAUCCUAGUCAGGUACGC (5' {PEG40k}, sugars by position and backbone not given here) [NOX-A12]”, the “inhibition of SDF-1 induced chemotaxis” value with SDF-1 was “Inhibition”. Besides, the “blockage of SDF-1 induced sprouting (sprouting index)” value in series [1] is “significantly different from that for SDF-1; also recorded: could be blocked”. Besides, in the series with Luc+/GFP+ MM.1S cells (NOX-A12 20 mg/kg s.c. every other day together with bortezomib 0.5 mg/kg i.p. twice a week), the “tumor growth (in vivo bioluminescence)” value is listed as “reduction of tumor growth”. Further, in the series with Luc+/GFP+ MM.1S cells (SCID mice, 20 mg/kg NOX-A12 subcutaneous every other day), the “MM cell mobilization (ex vivo flow cytometry)” value is on record as “MM cell mobilization from bone marrow to the blood”.
